Experimental findings from patent publication US8338450B2, “Compounds as dipeptidyl peptidase IV (DPP IV) inhibitors” (Lupin Limited, priority 2007, dated 2012) are described below.

Where a name gives a salt, the structure may show the parent alone.

T1 sequence (P27487 whole entry): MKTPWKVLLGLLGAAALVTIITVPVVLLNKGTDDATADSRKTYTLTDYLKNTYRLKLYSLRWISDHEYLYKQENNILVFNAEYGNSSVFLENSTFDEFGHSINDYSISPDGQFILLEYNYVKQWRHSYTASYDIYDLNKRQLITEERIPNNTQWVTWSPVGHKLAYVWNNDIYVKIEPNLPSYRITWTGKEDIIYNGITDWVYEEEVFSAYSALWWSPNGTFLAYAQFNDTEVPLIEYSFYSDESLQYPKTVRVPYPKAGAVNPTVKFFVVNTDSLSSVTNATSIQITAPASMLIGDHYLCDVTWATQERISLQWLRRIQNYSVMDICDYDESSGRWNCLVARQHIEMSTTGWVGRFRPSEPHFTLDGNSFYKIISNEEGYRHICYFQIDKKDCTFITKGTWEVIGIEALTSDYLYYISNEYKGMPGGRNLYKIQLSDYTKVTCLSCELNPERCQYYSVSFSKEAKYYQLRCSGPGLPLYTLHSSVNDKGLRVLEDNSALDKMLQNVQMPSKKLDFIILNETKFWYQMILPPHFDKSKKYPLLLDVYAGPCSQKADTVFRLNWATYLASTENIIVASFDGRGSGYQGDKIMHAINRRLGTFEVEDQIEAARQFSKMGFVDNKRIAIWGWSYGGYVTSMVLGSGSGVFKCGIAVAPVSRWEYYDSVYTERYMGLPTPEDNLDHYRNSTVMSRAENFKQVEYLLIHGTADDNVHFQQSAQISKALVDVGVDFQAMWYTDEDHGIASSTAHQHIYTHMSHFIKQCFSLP

One assay has as its target T1, human recombinant DPP-IV (Homo sapiens, UniProt P27487).
T1 construct: purchased R&D Systems, USA (or produced in-house)
The assay can be described thus: Inhibition of human recombinant DPP-IV (Gly-Pro-AMC hydrolysis, fluorometric). As to conditions: compound 10 nM; relative to vehicle controls. The class given is biochemical. As to the method:
Inhibition of Human Recombinant DPP-IV
The proteolytic activity of human recombinant DPP-IV was determined by following the hydrolysis of Gly-Pro-7-amino-4-methylcoumarin (Gly-Pro-AMC) and the fluorometric quantitation of the liberated AMC. Assays were routinely carried out in 96-well flat-bottom black microwell plates. The reaction mixture (100 μl) contained 10 ng of human recombinant DPP-IV enzyme (produced in-house or procured from R&D Systems, USA) in the assay buffer (25 mM Tris-HCl, pH 7.4, 140 mM NaCl, 10 mM KCl and 0.1 mg/ml BSA) and 50 μM Gly-Pro-AMC. After incubation of assay plates at 30° C. for 30 min, the hydrolysis of Gly-Pro-AMC was monitored in a fluorescence microplate reader (Molecular Devices SpectraMax M5), with excitation and emission wavelengths set at 360 nm and 460 nm, respectively.
The inhibition of DPP-IV activity by test compounds was routinely performed by preincubating the enzyme with test compound (10 and 100 nM for primary screening and 8 concentrations from 0.1 to 1000 nM for the dose-response study) or vehicle (0.01% DMSO) for 15 min at 30° C., in a total volume of 90 μl. Test compounds were dissolved in DMSO at a concentration of 10 mM and serially diluted further in assay buffer. The enzyme reaction was initiated by the addition of Gly-Pro-AMC, followed by incubation of assay plates for 30 min at 30° C. and the liberated AMC was measured as described above. A known inhibitor of DPP-IV (positive control) was always included in the assay. Test compounds at various concentrations were always evaluated in duplicate, along with substrate blanks, vehicle controls and positive controls.
The results are expressed as percent inhibition of the enzyme activity relative to vehicle controls. Dose-response studies were conducted for those compounds exerting ≧50% inhibition of activity at 10 nM in primary screening. IC50, defined as the inhibitor concentration which caused a 50% decrease of the activity under assay conditions, was computed using GraphPad Prism software, version 5.0.
The DPP-IV inhibition data (expressed either as IC50 in nanomolar or percent inhibition at a particular compound concentration) is presented in Table 1.
Consider `N#C[C@@H]1C[C@@H]2C[C@@H]2N1C(=O)[C@@H](N)C1CC2CCC(C1)N2C(=O)NS(=O)(=O)c1ccc(Cl)cc1.O=C(O)C(F)(F)F` (stereo partly drawn) [Compound 61, (1S,3S,5S)-2-{(2S)-2-Amino-2-[8-(4-chlorophenylsulfonylcarbamoyl)-8-aza-bicyclo[3.2.1]oct-3-yl]-exo-ethanoyl}-2-azabicyclo[3.1.0]hexane-3-carbonitrile trifluoroacetic acid salt], for which the “% inhibition at 10 nM” value was determined as 9% inhibition at 10 nM.

For `N#C[C@@H]1C[C@@H]2C[C@@H]2N1C(=O)[C@@H](N)C1CC2CCC(C1)N2C(=O)C1CCCCC1.O=C(O)C(F)(F)F` (stereo partly drawn) [Compound 58, (1S,3S,5S)-2-{(2S)-2-Amino-2-[8-(cyclohexane-carbonyl)-8-aza-bicyclo[3.2.1]oct-3-yl]-exo-ethanoyl}-2-azabicyclo[3.1.0]hexane-3-carbonitrile trifluoroacetic acid salt], the “% inhibition at 10 nM” value is 31% inhibition at 10 nM.

Regarding `COc1ccccc1NC(=S)N1C2CCC1CC([C@H](N)C(=O)N1[C@H](C#N)C[C@@H]3C[C@@H]31)C2.O=C(O)C(F)(F)F` (stereo partly drawn) [Compound 68, (1S,3S,5S)-2-{(2S)-2-Amino-2-[8-(2-methoxyphenylthiocarbamoyl)-8-aza-bicyclo[3.2.1]oct-3-yl]-exo-ethanoyl}-2-azabicyclo[3.1.0]-hexane-3-carbonitrile trifluoroacetic acid salt], the “% inhibition at 10 nM” value is 16% inhibition at 10 nM.

`N[C@H](C(=O)N1CCC[C@H]1CO)C1CC2CCC(C1)N2C(=O)c1ccc2c(c1)OCO2.O=C(O)C(F)(F)F` (stereo partly drawn) [Compound 14, (2S)-{(2S)-1-[(2S)-2-Amino-2-(8-(benzo[1,3]dioxole-5-carbonyl)-8-aza-bicyclo[3.2.1]-oct-3-yl)-exo-acetyl]-pyrrolidin-2-yl}methanol trifluoroacetic acid salt]: the “% inhibition at 10 nM” value came to 12% inhibition at 10 nM.

Staying with this assay, now noted: compound 100 nM; relative to vehicle controls.
As to `N#C[C@@H]1C[C@@H]2C[C@@H]2N1C(=O)[C@@H](N)C1CC2CCC(C1)N2CC12CC3CC(CC(C3)C1)C2.O=C(O)C(F)(F)F` (stereo partly drawn) [Compound 49, (1S,3S,5S)-2-{(2S)-2-Amino-2-[8-(adamantan-1-ylmethyl)-8-aza-bicyclo[3.2.1]oct-3-yl]-exo-ethanoyl}-2-azabicyclo[3.1.0]hexane-3-carbonitrile trifluoroacetic acid salt], the “% inhibition at 100 nM” value was determined as 60% inhibition at 100 nM.

The same assay, now with this note: human recombinant DPP-IV, 50 μM Gly-Pro-AMC, 30 min at 30° C.
Usually IC50 stands for the concentration needed to halve the response being measured. Take `N#C[C@@H]1C[C@@H]2C[C@@H]2N1C(=O)[C@@H](N)C1CC2CCC(C1)N2C(=O)c1ccncc1F` (stereo partly drawn) [Compound 41, (1S,3S,5S)-2-{(2S)-2-Amino-2-[8-(3-fluoropyridine-4-carbonyl)-8-aza-bicyclo[3.2.1]oct-3-yl]-exo-ethanoyl}-2-azabicyclo[3.1.0]hexane-3-carbonitrile trifluoroacetic acid salt]: the IC50 came to 4.92 nM.

On to `N#C[C@@H]1C[C@@H]2C[C@@H]2N1C(=O)[C@@H](N)C1CC2CCC(C1)N2S(=O)(=O)c1cccs1` (stereo partly drawn) [Compound 57, (1S,3S,5S)-2-{(2S)-2-Amino-2-[8-(thiophene-2-sulfonyl)-8-aza-bicyclo[3.2.1]oct-3-yl]-exo-ethanoyl}-2-azabicyclo[3.1.0]hexane-3-carbonitrile trifluoroacetic acid salt], for which the IC50 turned out to be 8 nM.

Take `N#C[C@@H]1C[C@@H]2C[C@@H]2N1C(=O)[C@@H](N)C1CC2CCC(C1)N2S(=O)(=O)c1cc(F)cc(F)c1` (stereo partly drawn) [Compound 42, (1S,3S,5S)-2-{(2S)-2-Amino-2-[8-(3,5-difluorobenzenesulfonyl)-8-aza-bicyclo[3.2.1]oct-3-yl]-exo-ethanoyl}-2-azabicyclo[3.1.0]hexane-3-carbonitrile trifluoroacetic acid salt]: the IC50 is 9 nM.

In the case of `CC(=O)N1CCC(C(=O)N2C3CCC2CC([C@H](N)C(=O)N2[C@H](C#N)C[C@@H]4C[C@@H]42)C3)CC1` (stereo partly drawn) [Compound 69, (1S,3S,5S)-2-{(2S)-2-Amino-2-[8-(1-acetyl-piperidin-4-carbonyl)-8-aza-bicyclo[3.2.1]oct-3-yl]-exo-ethanoyl}-2-azabicyclo[3.1.0]hexane-3-carbonitrile trifluoroacetic acid salt], the IC50 is 13 nM.

For `N#C[C@@H]1CCCN1C(=O)[C@@H](N)C1CC2CCC(C1)N2C(=O)c1cc(F)ccc1F` (stereo partly drawn) [Compound 6, (2S)-1-{(2S)-2-Amino-2-[8-(2,5-difluorobenzoyl)-8-aza-bicyclo[3.2.1]oct-3-yl]-exo-ethanoyl}-pyrrolidin-2-carbonitrile trifluoroacetic acid salt], the IC50 came out at 2.3 nM.

On to `N#Cc1ccc(C(=O)N2C3CCC2CC([C@H](N)C(=O)N2[C@H](C#N)C[C@@H]4C[C@@H]42)C3)cc1` (stereo partly drawn) [Compound 24, (1S,3S,5S)-2-{(2S)-2-Amino-2-[8-(4-cyanobenzoyl)-8-aza-bicyclo[3.2.1]oct-3-yl]-exo-ethanoyl}-2-azabicyclo[3.1.0]hexane-3-carbonitrile trifluoroacetic acid salt], for which the IC50 was 3.52 nM.

In the case of `N#C[C@@H]1C[C@@H]2C[C@@H]2N1C(=O)[C@@H](N)C1CC2CCC(C1)N2C(=O)c1cccs1` (stereo partly drawn) [Compound 34, (1S,3S,5S)-2-{(2S)-2-Amino-2-[8-(thiophene-2-carbonyl)-8-aza-bicyclo[3.2.1]oct-3-yl]-exo-ethanoyl}-2-azabicyclo[3.1.0]hexane-3-carbonitrile trifluoroacetic acid salt], the IC50 was found to be 12.9 nM.

For `N#C[C@@H]1C[C@H](F)CN1C(=O)[C@@H](N)C1CC2CCC(C1)N2C(=O)c1cc(F)c(F)cc1F` (stereo partly drawn) [Compound 16, (2S,4S)-1-{(2S)-2-Amino-2-[8-(2,4,5-trifluorobenzoyl)-8-aza-bicyclo[3.2.1]oct-3-yl]-exo-ethanoyl}-4-fluoro-pyrrolidin-2-carbonitrile trifluoroacetic acid salt], the IC50 was 2.9 nM.

Consider `N#C[C@@H]1C[C@@H]2C[C@@H]2N1C(=O)[C@@H](N)C1CC2CCC(C1)N2C(=O)c1ccc(C(F)(F)F)cc1` (stereo partly drawn) [Compound 26, (1S,3S,5S)-2-{(2S)-2-Amino-2-[8-(4-trifluoromethylbenzoyl)-8-aza-bicyclo[3.2.1]oct-3-yl]-exo-ethanoyl}-2-azabicyclo[3.1.0]hexane-3-carbonitrile trifluoroacetic acid salt], for which the IC50 was 8.9 nM.

For the compound `N#C[C@@H]1C[C@@H]2C[C@@H]2N1C(=O)[C@@H](N)C1CC2CCC(C1)N2C(=O)c1ccc2c(c1)OCO2` (stereo partly drawn) [Compound 44, (1S,3S,5S)-2-{(2S)-2-Amino-2-[8-(benzo[1,3]-dioxole-5-carbonyl)-8-aza-bicyclo[3.2.1]oct-3-yl]-exo-ethanoyl}-2-azabicyclo[3.1.0]-hexane-3-carbonitrile trifluoroacetic acid salt], the IC50 is 2.4 nM.

With `N#Cc1ccc(N2C3CCC2CC([C@H](N)C(=O)N2[C@H](C#N)C[C@@H]4C[C@@H]42)C3)nc1` (stereo partly drawn) [Compound 51, (1S,3S,5S)-2-{(2S)-2-Amino-2-[8-(5-cyanopyridine-2-yl)-8-aza-bicyclo[3.2.1]oct-3-yl]-exo-ethanoyl}-2-azabicyclo[3.1.0]hexane-3-carbonitrile trifluoroacetic acid salt], the IC50 turned out to be 9.6 nM.

For `N#Cc1ccc(C(=O)N2C3CCC2CC([C@H](N)C(=O)N2CCC[C@H]2C#N)C3)cc1` (stereo partly drawn) [Compound 5, (2S)-1-{(2S)-2-Amino-2-[8-(4-cyano-benzoyl)-8-aza-bicyclo[3.2.1]oct-3-yl]-exo-ethanoyl}-pyrrolidin-2-carbonitrile trifluoroacetic acid salt], the IC50 turned out to be 1.52 nM.

As to `CS(=O)(=O)N1C2CCC1CC([C@H](N)C(=O)N1[C@H](C#N)C[C@@H]3C[C@@H]31)C2` (stereo partly drawn) [Compound 56, (1S,3S,5S)-2-{(2S)-2-Amino-2-[8-(methanesulfonyl)-8-aza-bicyclo[3.2.1]oct-3-yl]-exo-ethanoyl}-2-azabicyclo[3.1.0]hexane-3-carbonitrile trifluoroacetic acid salt], the IC50 is 4.14 nM.

Turning to `N#C[C@@H]1CCCN1C(=O)[C@@H](N)C1CC2CCC(C1)N2C(=O)c1ccnc(F)c1` (stereo partly drawn) [Compound 7, (2S)-1-{(2S)-2-Amino-2-[8-(2-fluoro-pyridine-4-carbonyl)-8-aza-bicyclo[3.2.1]oct-3-yl]-exo-ethanoyl}-pyrrolidin-2-carbonitrile trifluoroacetic acid salt], the IC50 was 1.9 nM.

Consider `N#C[C@@H]1C[C@@H]2C[C@@H]2N1C(=O)[C@@H](N)C1CC2CCC(C1)N2C(=O)c1ccccn1` (stereo partly drawn) [Compound 39, (1S,3S,5S)-2-{(2S)-2-Amino-2-[8-(pyridine-2-carbonyl)-8-aza-bicyclo[3.2.1]oct-3-yl]-exo-ethanoyl}-2-azabicyclo[3.1.0]hexane-3-carbonitrile trifluoroacetic acid salt], for which the IC50 worked out at 11.7 nM.
